Reference: publication PMC4457528, “Identification of Novel Small Molecule Inhibitors of Oncogenic RET Kinase” (PLoS ONE, 2015)
Where two headings read alike, the source gives them in different places.

Columns and labels:
Assay in all cases: KinomeScan kinase panel, single concentration 10 µM
Format in all cases: binding
KinomeScan kinase panel [1] = target: T1, KinomeScan kinase panel (Homo sapiens, UniProt P00533, DEL752-759)
T1 construct: purchased DiscoveRx (KinomeScan)

KinomeScan kinase panel [2] = target: T2, KinomeScan kinase panel (Homo sapiens, UniProt P53671); conditions: LIMK2, 10 µM; read-out: score (%)
T2 construct: purchased DiscoveRx (KinomeScan)

KinomeScan kinase panel [3] = target: T3, KinomeScan kinase panel (Homo sapiens, UniProt Q15569); conditions: read-out: score (%)
T3 construct: purchased DiscoveRx (KinomeScan)
T3 sequence (Q15569 whole entry): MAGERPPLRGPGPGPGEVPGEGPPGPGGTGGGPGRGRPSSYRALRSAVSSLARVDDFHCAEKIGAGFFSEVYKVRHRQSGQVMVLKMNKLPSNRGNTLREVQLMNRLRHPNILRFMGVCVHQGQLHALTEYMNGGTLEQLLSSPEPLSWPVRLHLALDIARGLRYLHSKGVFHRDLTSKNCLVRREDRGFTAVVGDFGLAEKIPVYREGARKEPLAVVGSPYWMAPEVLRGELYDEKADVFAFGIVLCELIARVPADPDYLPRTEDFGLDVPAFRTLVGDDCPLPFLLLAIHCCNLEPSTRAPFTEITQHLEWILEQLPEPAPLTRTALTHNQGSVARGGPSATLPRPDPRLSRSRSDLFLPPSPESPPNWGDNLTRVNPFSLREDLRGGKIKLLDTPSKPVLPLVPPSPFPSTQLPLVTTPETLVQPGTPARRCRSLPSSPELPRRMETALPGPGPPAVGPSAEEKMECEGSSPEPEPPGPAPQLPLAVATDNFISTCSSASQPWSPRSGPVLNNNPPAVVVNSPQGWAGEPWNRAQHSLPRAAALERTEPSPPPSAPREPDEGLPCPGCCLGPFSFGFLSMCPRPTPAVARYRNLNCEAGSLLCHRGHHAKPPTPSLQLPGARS

KinomeScan kinase panel [4] = target: T4, KinomeScan kinase panel (Homo sapiens, UniProt P49840); conditions: GSK3A, 10 µM; read-out: score (%)
T4 construct: purchased DiscoveRx (KinomeScan)
T4 sequence (P49840 whole entry): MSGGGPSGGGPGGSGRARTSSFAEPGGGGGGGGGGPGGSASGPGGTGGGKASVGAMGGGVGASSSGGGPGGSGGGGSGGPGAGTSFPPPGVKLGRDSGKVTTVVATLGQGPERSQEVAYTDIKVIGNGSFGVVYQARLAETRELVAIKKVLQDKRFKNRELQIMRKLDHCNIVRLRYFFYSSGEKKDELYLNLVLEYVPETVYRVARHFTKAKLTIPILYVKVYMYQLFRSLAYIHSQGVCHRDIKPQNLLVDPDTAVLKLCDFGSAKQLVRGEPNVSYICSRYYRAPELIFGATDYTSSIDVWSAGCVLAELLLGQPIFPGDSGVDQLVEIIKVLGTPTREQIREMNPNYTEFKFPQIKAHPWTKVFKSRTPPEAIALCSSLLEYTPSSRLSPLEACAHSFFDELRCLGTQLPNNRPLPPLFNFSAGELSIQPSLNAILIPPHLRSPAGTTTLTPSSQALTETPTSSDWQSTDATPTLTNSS

KinomeScan kinase panel [5] = target: T5, KinomeScan kinase panel (Homo sapiens, UniProt Q9H0K1); conditions: read-out: score (%)
T5 construct: purchased DiscoveRx (KinomeScan)
T5 sequence (Q9H0K1 whole entry): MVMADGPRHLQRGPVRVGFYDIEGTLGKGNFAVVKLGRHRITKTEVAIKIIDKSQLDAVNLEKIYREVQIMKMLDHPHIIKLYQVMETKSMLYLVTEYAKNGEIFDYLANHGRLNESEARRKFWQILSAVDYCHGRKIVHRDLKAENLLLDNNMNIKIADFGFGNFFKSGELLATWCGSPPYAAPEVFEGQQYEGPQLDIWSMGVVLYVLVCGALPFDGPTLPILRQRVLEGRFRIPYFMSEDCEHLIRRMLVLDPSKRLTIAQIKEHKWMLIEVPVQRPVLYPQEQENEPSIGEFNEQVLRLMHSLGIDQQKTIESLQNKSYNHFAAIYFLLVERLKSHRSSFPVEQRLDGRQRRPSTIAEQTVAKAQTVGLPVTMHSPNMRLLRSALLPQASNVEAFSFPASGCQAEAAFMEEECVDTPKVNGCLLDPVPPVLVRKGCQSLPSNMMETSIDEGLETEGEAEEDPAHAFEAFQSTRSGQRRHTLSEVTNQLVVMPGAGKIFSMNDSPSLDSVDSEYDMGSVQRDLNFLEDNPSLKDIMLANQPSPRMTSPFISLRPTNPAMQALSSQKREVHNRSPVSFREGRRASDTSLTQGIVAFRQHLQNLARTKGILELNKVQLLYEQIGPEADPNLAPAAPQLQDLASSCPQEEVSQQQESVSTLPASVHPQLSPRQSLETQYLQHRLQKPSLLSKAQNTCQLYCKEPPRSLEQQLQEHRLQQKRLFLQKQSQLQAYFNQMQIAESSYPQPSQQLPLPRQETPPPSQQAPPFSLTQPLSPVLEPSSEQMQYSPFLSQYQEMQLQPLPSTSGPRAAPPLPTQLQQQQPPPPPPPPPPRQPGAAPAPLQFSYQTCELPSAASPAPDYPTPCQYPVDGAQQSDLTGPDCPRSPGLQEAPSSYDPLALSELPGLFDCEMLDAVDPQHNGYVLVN

KinomeScan kinase panel [6] = target: T6, KinomeScan kinase panel (Homo sapiens, UniProt Q9H093); conditions: 10 µM
T6 construct: purchased DiscoveRx (KinomeScan)
T6 sequence (Q9H093 1-628): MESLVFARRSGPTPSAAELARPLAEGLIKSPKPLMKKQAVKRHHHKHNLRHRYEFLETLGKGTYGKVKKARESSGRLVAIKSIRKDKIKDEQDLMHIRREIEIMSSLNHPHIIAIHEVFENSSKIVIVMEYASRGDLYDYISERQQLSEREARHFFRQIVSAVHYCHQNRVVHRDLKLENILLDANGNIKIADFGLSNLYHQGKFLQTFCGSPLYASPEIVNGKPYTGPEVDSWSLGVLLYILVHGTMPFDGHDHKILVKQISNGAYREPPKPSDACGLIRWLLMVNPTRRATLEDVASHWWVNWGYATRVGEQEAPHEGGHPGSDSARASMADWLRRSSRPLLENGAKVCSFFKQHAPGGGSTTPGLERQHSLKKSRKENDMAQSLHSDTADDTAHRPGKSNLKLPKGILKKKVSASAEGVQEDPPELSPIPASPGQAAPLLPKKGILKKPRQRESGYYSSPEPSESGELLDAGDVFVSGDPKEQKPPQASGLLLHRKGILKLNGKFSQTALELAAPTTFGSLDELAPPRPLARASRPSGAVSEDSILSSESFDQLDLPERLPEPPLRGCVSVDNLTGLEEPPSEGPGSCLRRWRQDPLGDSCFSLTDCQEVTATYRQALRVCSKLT

KinomeScan kinase panel [7] = target: T7, KinomeScan kinase panel (Homo sapiens, UniProt Q9NY57); conditions: kinase YANK2; 10 µM; read-out: score (%)
T7 construct: purchased DiscoveRx (KinomeScan)
T7 sequence (Q9NY57 whole entry): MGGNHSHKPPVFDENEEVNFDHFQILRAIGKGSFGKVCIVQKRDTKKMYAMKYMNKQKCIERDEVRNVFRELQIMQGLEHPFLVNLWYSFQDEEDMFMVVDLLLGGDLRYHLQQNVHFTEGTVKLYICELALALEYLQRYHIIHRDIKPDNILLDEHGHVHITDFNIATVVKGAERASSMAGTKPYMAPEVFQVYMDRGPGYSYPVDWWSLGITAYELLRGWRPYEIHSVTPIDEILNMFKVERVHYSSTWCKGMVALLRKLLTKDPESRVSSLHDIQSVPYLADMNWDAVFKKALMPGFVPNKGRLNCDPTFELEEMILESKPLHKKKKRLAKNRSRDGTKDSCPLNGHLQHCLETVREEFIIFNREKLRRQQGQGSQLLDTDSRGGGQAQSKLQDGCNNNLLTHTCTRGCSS

KinomeScan kinase panel [8] = target: T8, KinomeScan kinase panel (Homo sapiens, UniProt Q13164); conditions: ERK5, 10 µM; read-out: score (%)
T8 construct: purchased DiscoveRx (KinomeScan)

KinomeScan kinase panel [9] = target: T9, KinomeScan kinase panel (Homo sapiens, UniProt Q86Z02); conditions: HIPK1, 10 µM; read-out: score (%)
T9 construct: purchased DiscoveRx (KinomeScan)
T9 sequence (Q86Z02 whole entry): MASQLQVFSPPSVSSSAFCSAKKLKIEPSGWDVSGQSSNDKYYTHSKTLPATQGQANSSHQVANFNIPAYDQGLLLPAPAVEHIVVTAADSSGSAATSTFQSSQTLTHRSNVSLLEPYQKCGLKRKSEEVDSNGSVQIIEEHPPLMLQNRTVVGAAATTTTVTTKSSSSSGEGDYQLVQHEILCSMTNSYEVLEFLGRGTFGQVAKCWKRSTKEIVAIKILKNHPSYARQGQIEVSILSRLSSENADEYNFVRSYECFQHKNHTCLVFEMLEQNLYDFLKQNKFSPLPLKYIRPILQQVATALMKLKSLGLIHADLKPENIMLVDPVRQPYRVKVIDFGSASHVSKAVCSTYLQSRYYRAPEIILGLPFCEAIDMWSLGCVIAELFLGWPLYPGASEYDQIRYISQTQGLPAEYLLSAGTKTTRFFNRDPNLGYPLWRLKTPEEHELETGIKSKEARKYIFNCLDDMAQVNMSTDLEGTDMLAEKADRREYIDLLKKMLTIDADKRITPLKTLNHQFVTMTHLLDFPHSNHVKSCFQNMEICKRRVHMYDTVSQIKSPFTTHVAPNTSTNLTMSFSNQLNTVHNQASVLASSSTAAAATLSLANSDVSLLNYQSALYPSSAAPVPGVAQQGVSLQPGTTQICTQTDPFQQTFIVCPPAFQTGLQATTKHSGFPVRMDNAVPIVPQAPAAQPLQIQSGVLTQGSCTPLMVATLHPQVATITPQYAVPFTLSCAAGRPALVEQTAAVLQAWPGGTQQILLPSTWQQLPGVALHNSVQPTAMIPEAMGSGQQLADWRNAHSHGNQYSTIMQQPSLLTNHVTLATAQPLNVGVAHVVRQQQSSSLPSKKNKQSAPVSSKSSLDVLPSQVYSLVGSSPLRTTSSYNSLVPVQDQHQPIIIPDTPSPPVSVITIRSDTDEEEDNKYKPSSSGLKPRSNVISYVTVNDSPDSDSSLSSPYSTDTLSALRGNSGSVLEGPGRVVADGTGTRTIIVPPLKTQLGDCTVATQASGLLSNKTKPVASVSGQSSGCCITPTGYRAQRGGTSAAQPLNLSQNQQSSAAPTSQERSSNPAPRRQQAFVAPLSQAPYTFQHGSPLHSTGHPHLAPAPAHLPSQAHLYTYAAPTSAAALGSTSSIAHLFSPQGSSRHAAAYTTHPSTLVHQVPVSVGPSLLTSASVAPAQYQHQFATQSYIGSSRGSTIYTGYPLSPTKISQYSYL

KinomeScan kinase panel [10] = target: T10, KinomeScan kinase panel (Homo sapiens, UniProt Q08345); conditions: DDR1, 10 µM; read-out: score (%)
T10 construct: purchased DiscoveRx (KinomeScan)

KinomeScan kinase panel [11] = target: T11, KinomeScan kinase panel (Homo sapiens, UniProt Q8N752); conditions: CSNK1A1L, 10 µM; read-out: score (%)
T11 construct: purchased DiscoveRx (KinomeScan)
T11 sequence (Q8N752 1-337): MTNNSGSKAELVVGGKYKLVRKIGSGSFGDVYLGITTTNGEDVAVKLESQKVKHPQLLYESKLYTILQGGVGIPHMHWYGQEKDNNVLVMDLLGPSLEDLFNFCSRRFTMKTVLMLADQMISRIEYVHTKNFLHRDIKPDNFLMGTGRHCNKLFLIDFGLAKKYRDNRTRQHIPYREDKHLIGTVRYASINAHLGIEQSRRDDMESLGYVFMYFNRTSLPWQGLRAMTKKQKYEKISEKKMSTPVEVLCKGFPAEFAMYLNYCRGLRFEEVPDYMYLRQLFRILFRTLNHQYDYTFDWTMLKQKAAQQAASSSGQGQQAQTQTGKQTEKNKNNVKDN

KinomeScan kinase panel [12] = target: T12, KinomeScan kinase panel (Homo sapiens, UniProt Q32MK0); conditions: MLCK, 10 µM; read-out: score (%)
T12 construct: purchased DiscoveRx (KinomeScan)
T12 sequence (Q32MK0 1-819): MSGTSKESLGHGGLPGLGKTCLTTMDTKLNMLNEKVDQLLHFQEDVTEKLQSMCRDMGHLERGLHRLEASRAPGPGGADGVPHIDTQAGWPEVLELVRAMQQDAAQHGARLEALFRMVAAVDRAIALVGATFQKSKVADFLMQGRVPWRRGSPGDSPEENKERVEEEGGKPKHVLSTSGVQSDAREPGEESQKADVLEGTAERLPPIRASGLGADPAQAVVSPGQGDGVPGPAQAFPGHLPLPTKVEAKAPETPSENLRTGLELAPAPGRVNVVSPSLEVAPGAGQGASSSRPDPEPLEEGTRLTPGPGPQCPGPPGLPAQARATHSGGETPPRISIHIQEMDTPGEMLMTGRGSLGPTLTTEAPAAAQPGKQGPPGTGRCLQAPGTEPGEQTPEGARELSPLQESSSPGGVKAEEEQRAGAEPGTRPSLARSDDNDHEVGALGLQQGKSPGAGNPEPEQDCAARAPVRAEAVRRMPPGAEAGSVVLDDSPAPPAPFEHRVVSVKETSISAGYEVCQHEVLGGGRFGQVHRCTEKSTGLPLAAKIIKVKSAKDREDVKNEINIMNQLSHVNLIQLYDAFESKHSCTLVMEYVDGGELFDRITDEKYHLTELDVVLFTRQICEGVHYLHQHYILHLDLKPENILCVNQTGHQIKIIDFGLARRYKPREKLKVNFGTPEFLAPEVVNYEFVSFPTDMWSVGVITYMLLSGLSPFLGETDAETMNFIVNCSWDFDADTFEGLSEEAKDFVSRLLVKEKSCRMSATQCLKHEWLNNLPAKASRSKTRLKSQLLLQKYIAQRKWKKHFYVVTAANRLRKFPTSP

T1 sequence (P00533 with tags, fused parts or gaps DEL752-759): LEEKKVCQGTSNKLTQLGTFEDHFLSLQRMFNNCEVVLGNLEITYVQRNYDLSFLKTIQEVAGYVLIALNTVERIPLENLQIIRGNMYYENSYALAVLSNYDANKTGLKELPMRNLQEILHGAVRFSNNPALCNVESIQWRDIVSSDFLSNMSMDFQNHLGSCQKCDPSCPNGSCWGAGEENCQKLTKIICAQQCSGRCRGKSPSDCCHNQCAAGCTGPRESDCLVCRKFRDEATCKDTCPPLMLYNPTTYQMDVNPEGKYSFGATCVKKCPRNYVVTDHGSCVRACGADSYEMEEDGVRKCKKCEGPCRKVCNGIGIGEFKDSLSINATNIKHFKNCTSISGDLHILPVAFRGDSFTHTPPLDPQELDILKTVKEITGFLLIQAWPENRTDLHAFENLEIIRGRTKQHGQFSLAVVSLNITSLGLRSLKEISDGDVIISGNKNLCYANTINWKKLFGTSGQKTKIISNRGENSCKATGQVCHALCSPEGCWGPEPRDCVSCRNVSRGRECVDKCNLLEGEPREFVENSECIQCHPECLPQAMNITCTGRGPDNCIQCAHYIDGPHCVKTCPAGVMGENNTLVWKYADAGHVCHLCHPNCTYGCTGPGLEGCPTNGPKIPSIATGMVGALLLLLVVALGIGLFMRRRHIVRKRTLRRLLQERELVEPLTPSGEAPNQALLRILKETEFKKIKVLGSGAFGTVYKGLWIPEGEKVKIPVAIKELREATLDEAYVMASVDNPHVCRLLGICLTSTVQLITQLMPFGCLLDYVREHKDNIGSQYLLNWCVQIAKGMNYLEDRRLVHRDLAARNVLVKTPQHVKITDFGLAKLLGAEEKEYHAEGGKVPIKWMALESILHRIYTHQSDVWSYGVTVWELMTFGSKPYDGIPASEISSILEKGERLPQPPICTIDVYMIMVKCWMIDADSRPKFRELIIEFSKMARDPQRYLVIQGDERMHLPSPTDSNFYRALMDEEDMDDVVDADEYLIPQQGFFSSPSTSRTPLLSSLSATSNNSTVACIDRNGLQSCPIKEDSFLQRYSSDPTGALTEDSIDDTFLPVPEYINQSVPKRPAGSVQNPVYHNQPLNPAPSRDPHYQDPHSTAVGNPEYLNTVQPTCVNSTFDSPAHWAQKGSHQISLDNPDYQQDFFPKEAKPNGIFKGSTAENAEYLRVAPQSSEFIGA

| remaining binding at 10 µM (KinomeScan kinase panel [3]; TESK1, 10 µM) [%] | remaining binding at 10 µM (KinomeScan kinase panel [5]; SNF1LK2, 10 µM) [%] | Structure (SMILES) | score (%) (KinomeScan kinase panel [1]; EGFR(S752-I759del), 10 µM) | remaining binding at 10 µM (KinomeScan kinase panel [2]) [%] | remaining binding at 10 µM (KinomeScan kinase panel [3]; kinase TESK1, 10 µM) [%] | remaining binding at 10 µM (KinomeScan kinase panel [4]) [%] | remaining binding at 10 µM (KinomeScan kinase panel [5]; kinase SIK2, 10 µM) [%] | score (%) (KinomeScan kinase panel [6]; kinase SNARK) | remaining binding at 10 µM (KinomeScan kinase panel [7]) [%] | remaining binding at 10 µM (KinomeScan kinase panel [8]) [%] | remaining binding at 10 µM (KinomeScan kinase panel [9]) [%] | remaining binding at 10 µM (KinomeScan kinase panel [10]) [%] | remaining binding at 10 µM (KinomeScan kinase panel [11]) [%] | remaining binding at 10 µM (KinomeScan kinase panel [12]) [%] | score (%) (KinomeScan kinase panel [6]; SNARK) | score (%) (KinomeScan kinase panel [1]) |
| --- | --- | --- | --- | --- | --- | --- | --- | --- | --- | --- | --- | --- | --- | --- | --- | --- |
|  |  | CCN1CCN(Cc2ccc(NC(=O)c3ccc(C)c(C#Cc4cccnc4)c3)cc2C(F)(F)F)CC1 [XMD15-44] | 0.9 | 11 | 60 | > 30 | 21 | 99% | 100 | > 30 | > 30 | 0.05 | > 30 | > 30 |  |  |
| 4.2 | 6.4 | CCN1CCN(Cc2ccc(NC(=O)c3ccc(C)c(/C=C/c4cnc5[nH]ccc5c4Cl)c3)cc2C(F)(F)F)CC1 [HG-6-63-01, (E)-3-(2-(4-chloro-1H-pyrrolo[2,3-b]pyridin-5-yl)vinyl)-N-(4-((4-ethylpiperazin-1-yl)methyl)-3-(trifluoromethyl)phenyl)-4-methylbenzamide] | 0 | 6.6 |  | > 30 |  |  | > 30 | > 30 | > 30 | 0.1 | > 30 | 5.9 | nb (Hits values higher than 30% were considered negative (no binding: nb)) |  |
|  |  | CCN1CCN(Cc2ccc(NC(=O)c3ccc(C)c(NC(=O)c4cncc(-c5cccs5)c4)c3)cc2C(F)(F)F)CC1 [ALW-II-41-27] |  | 31 | > 30 | > 30 | 13 | nb (Hits values higher than 30% were considered negative (no binding: nb)) | > 30 | > 30 | > 30 | 0.15 | > 30 | > 30 |  | 3 |
